Data taken from patent publication US7304129B2 (Imperial Innovations Limited, priority 2000, dated 2007).
Where “and” joins values, the source holds several entries; their conditions need not be identical. Equal entries are not always repeated. Entries after “also recorded” stand apart in the source; their conditions may differ. Positions of bridges follow the written chain, without caps; N, C: chain ends. Chains are numbered I, II in the order given. No end group written: not given here.

Columns and labels:
NIH3T3 cells = test: cell survival/proliferation at two plating densities; details: 11,000 cells per well; FGF2 10 ng/ml
Text: FGF2 is a mitogen for a range of cells, including NIH3T3 cells.

[1] = tested on: cells growing in the presence of FGF2 or Peptide A(d); test: mitogenesis by observation of cells growing (rounding-up, cell number); type: cell-based
Text: FGF stimulates axonal regeneration, cell survival and mitogenesis. […] This can be seen by the failure of Peptide A(d)-treated cells to show the rounding-up characteristic of cell division, and there is not the increase in cell number observed in the presence of a mitogenic stimulation by FGF2.

[2] = tested on: Oligodendrocyte progenitors (O4 positive); type: cell-based, rat; details: six days in culture
Text: Oligodendrocyte progenitors (O4 positive) are purified from postnatal day 4 rat cerebral cortex. First a trypsinised preparation of cortical cells is dissociated to single cell suspension and pre-plated to remove unwanted adherent cells such as microglia and macrophages. Oligodendrocyte progenitors express the O4 antigen, and can be purified by panning on petri-dishes coated with anti O4 antibodies. Unbound cells are removed by gentle washing, then O4 positive cells are removed by triturating them off the plate with DMEM containing 1% FCS, through a flame-polished pasteur pipette. O4 positive cells are plated on polyornithine-coated glass coverslips at a density of 500,000 cells per well in minimal growth medium containing insulin or the peptide Ac-DRVEPYSSTA[lys]2[lys] i.e. [{Ac-DRVEPYSSTA}2-K]2-K-OH, Peptide A(d), for six days, before being fixed and stained with the anti O4 antibody. Viable O4 positive cells are counted for each condition

[3] = tested on: rat cerebellar granule neurons cultured on monolayers of NIH 3T3 fibroblasts; test: in vitro neurite outgrowth co-culture assay (axon regeneration); type: cell-based
Experimental: An example of such an assay is a co-culture assay in which neurons are cultured on top of cellular monolayers for 16 hours, before being fixed and stained with a neuron-specific antibody. The mean length of the longest neurite per cell can then be determined by fluorescence microscopy using an appropriate image analysis programme. The neurons may be, for example, (in this case cerebellar granule cell neurons, hippocampal, dorsal root ganglion, olfactory, motor or dopaminergic neurons. The cellular monolayer is, for example NIH 3T3 fibroblasts.
Monolayers of NIH 3T3 fibroblasts were established by seeding 80,000 cells per well in Lab-Tek 8-chamber slides previously coated sequentially with poly-L-lysine and fibronectin and culturing them overnight in DMEM+10% FCS growth medium.
Cerebellum was dissected from post-natal day 2-4 rat pups and the meninges and extraneous tissue discarded. Cerebellum was chopped into small pieces and trypsinised for 10 minutes at 37° C. Trypsin was neutralised using growth medium and the cells pelletted at 1000×g for 7 minutes. Cerebellar neurons were then resuspended in SATO growth medium containing 2% FCS, counted, and plated on top of the fibroblast monolayer at a density of 1,500 neurons per well. After 16 hours, cocultures were fixed with 4% para-formaldehyde and stained with an anti-GAP43 neuron-specific antibody, which was a gift from Dr Graham Wilkin, Imperial College Department of Biochemistry, London, but any other neuron-specific marker can be used.
The mean neurite length of 150-200 neurons per well was determined using a fluorescent microscope and Zeiss KS300 imaging software.
Peptides A, A(d), B, C, D, E, and F were each incorporated in the SATO medium at a range of concentrations from 0 to 200 μg/ml. Nerve growth factor (NGF) and fibroblast growth factor (FGF2) were used as controls at the same range of concentrations.

MAP kinase = test: Western blot for tyrosine phosphorylated MAP kinase in NIH 3T3 cells; type: cell-based; details: peptide 400 μg/ml, 10 minutes
Experimental: A Western blot (FIG. 2f) was obtained as follows: one million NIH 3T3 cells were serum starved for 24 hours then challenged with the following agents: DMEM, 10% FCS, 0.1 ng/ml FGF2, 1 ng/ml FGF2, 10 ng/ml FGF2, 5 μg/ml insulin, 400 μg/ml peptide 52 for 10 minutes at 37 degrees Celsius before being lysed in sample buffer and band separated by PAGE. Proteins were transferred to PVDF membranes and probed with an antibody that recognises tyrosine phosphorylated MAP kinse (upper panel).

[4] = tested on: cells in S phase (bromodeoxyuridine incorporation into DNA); test: bromodeoxyuridine incorporation (entry into S phase) mitogenicity assay; type: cell-based; details: peptide, any of the concentrations tested
Experimental: The mitogenicity of an agent can be determined by testing its ability to stimulate entry of cells into ‘S’ phase in readiness for cell division. This is done by standard methodology and involves incubating cells in the presence of a potential mitogen in DMEM supplemented with bromodeoxyuridine. After six hours the cells are fixed and stained with an antibody recognising bromodeoxyuridine. Cells in S phase can be distinguished by their incorporation of bromodeoxyuridine into DNA.

NIH 3T3 fibroblasts = test: survival of 3T3 fibroblasts in serum-free DMEM (MTS and morphologic method, Example 5a); type: cell-based
Experimental: NIH 3T3 fibroblasts were plated in each well of a 96-well microtitre plate at a density of 7,000 cells per well in DMEM containing 3% FCS and left to attach overnight. The following day the growth medium was removed and replaced with 0.1 ml DMEM supplemented with FGF or Peptide A(d) or both, eight wells for each condition. The negative control was DMEM alone (maximal cell death) and the positive control was supplementation with 0.5% FCS (maximal cell survival).
Six days later (seven days from first plating the cells), the relative number of living cells in each well was assessed by adding the mitochondrial substrate MTS, [3-(4,5-dmethylthiazol-2-yl)-5-(3-carboxymethoxyphenyl)-2-(4-sulphophenyl)-2H-tetrazolium, inner salt), for four hours before reading the optical density on a microtitre plate reader at a wavelength of 490 nm. The optical density gives a measure of the number of respiring cells present in each well at the end of the assay period.
In addition to the biochemical assay, survival was assessed qualitatively using a morphologic method in which cells were plated in 8-chamber Lab Tek slides in DbEM alone (negative control), or DMEM supplemented with 0.5 ng/ml FGF2; 0.5% FCS (positive control), or 25-200 μg/ml Peptide A(d). After three days the cells were fixed with 4% paraformaldehyde, permeablised with methanol and stained with TRITC-conjugated falloidin to visualise the cell cytoskeleton.

L6 cell line = test: survival of L6 cell line lacking FGF receptors; type: cell-based; details: FGF2 0.1, 1 and 10 ng/ml; Peptide A(d) 100 and 400 μg/ml
Experimental: FIG. 2d compares the effects of DMEM, FCS, FGF2 at 0.1, 1 and 10 ng/ml, insulin at 0.5 and 5 μg/ml, and Peptide A(d) at 100 and 400 μg/ml.

NIH 3T3 cells [5] = test: NIH 3T3 cell survival MTS assay in serum-free DMEM (Example 6); type: cell-based
Experimental: NIH 3T3 cells are plated in 96-well plates at a density of 5,500 cells/well in 100 μl DMEM containing 0.5% FCS. After 24 hours, this medium is aspirated from the wells and replaced with 100 μl serum-free DMEM alone, or supplemented with 0.5% FCS (positive control), or a single potential survival factor, with four identical wells set up for each condition. The cells are left for up to seven days at 37 degrees and 8% CO2 before the cell survival is determined using an MTS assay. In this assay 20 μl of MTS substrate is added to each 100 μl well and the plate left in the incubator for up to four hours. Respiring cells produce a coloured reaction product that can be read using a spectrophotometer at 490 nm. […] The mean absorbance at 490 nm+/−SEM is determined for the four identically set up wells. Wells containing a known survival factor such as insulin will contain more living cells after three days than cells cultured in unsupplemented medium.

NIH 3T3 cells [6] = test: NIH 3T3 survival and morphology, TRITC-conjugated phalloidin staining; type: cell-based; details: three days; insulin 0.5 pg/ml, FGF2 0.1 ng/ml, Peptide A(d) 10 ng/ml
cerebellar neurons = test: survival of neurons (Example 5b); type: cell-based

I: Ac-DRVEPYSSTAKK / II: Ac-DRVEPYSSTAK / III: Ac-DRVEPYSSTA / IV: Ac-DRVEPYSSTA (amide I:11-IV:C, I:12-II:C, II:11-III:C) [Peptide A(d), [{Ac-DRVEPYSSTA}2-K]2-K-OH]
cell proliferation (NIH3T3 cells): does not stimulate proliferation
mitogenesis (observation of cells) [1]: does not stimulate mitogenesis
oligodendrocyte survival (in words) [2]: dose-dependent survival effect
concentration stimulating maximal neurite outgrowth [3]: 400 nM
stimulation of neurite outgrowth (in words) ([3]; agent included in coculture medium, 16 hour culture): bi-phasic dose-response curve
peptide concentration giving maximal effects in neurite outgrowth assay ([3]; rat cerebellar neurons on 3T3 monolayer, 16 hours): 1.5-2.5 μg/ml and ~0.4 μM
potency in stimulating neurite outgrowth relative to the monomeric peptide ([3]; versus monomeric peptide): 250 times
MAP kinase activation (MAP kinase): do not
MAP kinase activation (MAP kinase; listed as Ac-DRVEPYSSTA[lys]2[lys]): do not
MAP kinase activation (MAP kinase; listed as peptide 52): did not
mitogenicity (entry into S phase) [4]: unable to stimulate entry into S phase; also recorded: not mitogenic at any of the concentrations tested
cell survival with combination (NIH 3T3 fibroblasts; DMEM supplemented with Peptide A(d) together with FGF2): greater than with either agent alone
survival of 3T3 fibroblasts (NIH 3T3 fibroblasts; Peptide A(d) alone at 25 μg/ml): stimulated the survival of 3T3 fibroblasts to the same extent as 0.125 ng/ml FGF2
stimulation of survival compared with positive control 0.5% FCS (NIH 3T3 fibroblasts; all concentrations (25-200 μg/ml)): at least as good as the positive control
survival of L6 cell line (L6 cell line): unable to stimulate the survival
survival of NIH3T3 cells in serum-free conditions (in words) (NIH 3T3 cells [5]; FGF2 only at low concentrations): stimulates dose-dependent survival
time over which survival is stimulated in serum-free conditions (NIH 3T3 cells [5]; maximum time tested): at least seven days
cell survival / morphology (NIH 3T3 cells [6]): stimulate cell survival
survival of cerebellar neurons (cerebellar neurons): stimulate survival of cerebellar neurons
